Assay results: patent EP0426225A2, “(6,7-dihydro-5H-pyrrolo[1,2-c]-imidazol-5-yl)- and (5,6,7,8-tetrahydroimidazo[1,5-a]pyridin-5-yl) substituted 1H-benzotriazole derivatives” (JANSSEN PHARMACEUTICA N.V., priority 1989, dated 1991)
Counter-ions that a name gives are not always drawn. Like-named read-outs stand apart in the source and are kept apart here.

What was measured:
[1] = biological target: T1, aromatase (Homo sapiens, UniProt P11511); assay: In vitro inhibition of the aromatase activity test (conversion of 1,2[3H]-androstenedione into estrone and estradiol, human placental microsomes); assay type: biochemical; details: 30 min at 37°C, concentration required to obtain 50% inhibition of the estrogen synthesis, read-out: Aromatase in vitro IC₅₀
T1 construct: from tissue; host or cells: human placental microsomes
T1 sequence (P11511 1-503): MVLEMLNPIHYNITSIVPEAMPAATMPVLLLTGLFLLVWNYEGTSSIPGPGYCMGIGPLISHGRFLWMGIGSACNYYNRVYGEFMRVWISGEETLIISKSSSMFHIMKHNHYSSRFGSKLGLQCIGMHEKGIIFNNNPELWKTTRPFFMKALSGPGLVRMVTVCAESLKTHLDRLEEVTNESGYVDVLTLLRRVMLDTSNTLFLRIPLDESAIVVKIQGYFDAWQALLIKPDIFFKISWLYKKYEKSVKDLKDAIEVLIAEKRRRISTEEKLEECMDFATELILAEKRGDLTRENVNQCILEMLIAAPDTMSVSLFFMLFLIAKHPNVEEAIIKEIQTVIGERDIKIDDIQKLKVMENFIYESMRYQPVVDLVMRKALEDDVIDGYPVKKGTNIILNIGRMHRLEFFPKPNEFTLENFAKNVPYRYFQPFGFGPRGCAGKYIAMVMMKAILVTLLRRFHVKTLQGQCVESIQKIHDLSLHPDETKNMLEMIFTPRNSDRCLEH
Method: Human placental microsomes were diluted in potassium phosphate buffer (0.1M, pH 7.4) to give about 50% conversion of androgens to estrogens (protein content : about 0.5 mg). Four ml human placental microsomes were incubated in a final volume of 5 ml with 0.2 µCi 1,2[³H]-androstenedione, 2 µg androstenedione and 5 µl of test compound and/or dimethylsulfoxide (DMSO). […] The reaction was initiated by the addition of androstenedione and proceeded for 30 min at 37°C. During the incubation period, the mixtures were gassed with air. In this assay, aromatization of androstenedione results in the production of [3H]-H₂O which is isolated by extracting the samples with chloroform to remove the free steroid.

[2] = biological target: T2, aromatase (Rattus norvegicus, UniProt P22443); assay: In vivo inhibition of the aromatase activity (plasma estradiol in PMSG-injected immature female rats); set-up: species or system Wistar rats; details: read-out: Aromatase in vivo % inhibition at 1 mg/kg
T2 construct: Immature female Wistar rats weighing 120 g were injected subcutaneously; from tissue; host or cells: whole animal: immature female Wistar rats primed with PMSG (endogenous, mainly ovarian, aromatase by own knowledge)
T2 sequence (P22443 1-508): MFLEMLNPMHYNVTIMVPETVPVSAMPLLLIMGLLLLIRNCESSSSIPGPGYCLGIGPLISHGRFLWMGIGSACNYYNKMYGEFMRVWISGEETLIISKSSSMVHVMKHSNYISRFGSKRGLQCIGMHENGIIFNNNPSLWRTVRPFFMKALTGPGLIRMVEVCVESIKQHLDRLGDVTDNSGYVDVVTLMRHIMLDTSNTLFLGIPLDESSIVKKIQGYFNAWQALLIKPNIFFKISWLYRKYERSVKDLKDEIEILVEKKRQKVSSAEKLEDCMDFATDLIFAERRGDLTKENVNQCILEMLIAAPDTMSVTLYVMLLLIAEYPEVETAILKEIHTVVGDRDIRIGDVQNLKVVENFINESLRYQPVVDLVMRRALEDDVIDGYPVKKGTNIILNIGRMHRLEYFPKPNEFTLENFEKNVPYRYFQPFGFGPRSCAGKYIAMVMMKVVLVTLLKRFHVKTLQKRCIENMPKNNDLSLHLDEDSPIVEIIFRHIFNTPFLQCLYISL
Method: Immature female Wistar rats weighing 120 g were injected subcutaneously with 200 I.U. of pregnant mare's serum gonadotropin (PMSG). Ninety hours later, 1 mg/kg of the test compound dissolved in 0.5 ml 20% polyethyleneglycol in water was administered by oral gavage. Control animals received 20% polyethyleneglycol only. Two hours following drug or placebo administration the rats were killed by decapitation and trunk blood was collected on heparine. Plasma estradiol concentrations were measured by standard radio-immunological procedures. […]

[3] = 1 mg/kg by oral gavage, immature female Wistar rats 90 h after PMSG, plasma estradiol two hours after administration, relative to controls

| IC50 [1] | inhibition at 1 mg/kg [2, 3] | SMILES | inhibition at 1 mg/kg ([2]; po) |
| --- | --- | --- | --- |
| 0.0442 µM | 96% | N#Cc1ccc(COn2nnc3ccc(C4CCCc5cncn54)cc32)cc1 (stereo not shown) [Compound 2] |  |
| 0.0295 µM | 92% | CCCOn1nnc2ccc(C3CCCc4cncn43)cc21 (stereo not shown) [Compound 3] |  |
| 0.0375 µM | 94% | CCOn1nnc2ccc(C3CCCc4cncn43)cc21 (stereo not shown) [Compound 4] |  |
| 0.0279 µM | 95% | C=CCOn1nnc2ccc(C3CCCc4cncn43)cc21 (stereo not shown) [Compound 5] |  |
| 0.0592 µM | 86% | CC(C)COn1nnc2ccc(C3CCCc4cncn43)cc21 (stereo not shown) [Compound 6] |  |
| 0.057 µM | 89% | COn1nnc2ccc(C3CCCc4cncn43)cc21 (stereo not shown) [Compound 9] |  |
| 0.0317 µM | 88% | CCCCOn1nnc2ccc(C3CCCc4cncn43)cc21 (stereo not shown) [Compound 10] |  |
| 0.0252 µM | 85% | C=C(C)COn1nnc2ccc(C3CCCc4cncn43)cc21 (stereo not shown) [Compound 12] |  |
| 0.0295 µM | 80% | C#CCOn1nnc2ccc(C3CCCc4cncn43)cc21 (stereo not shown) [Compound 14] |  |
| 0.0346 µM | 88% | N#CCCCCOn1nnc2ccc(C3CCCc4cncn43)cc21 (stereo not shown) [Compound 18] |  |
| 0.0393 µM | 87% | CCC(C)On1nnc2ccc(C3CCCc4cncn43)cc21 (stereo not shown) [Compound 20] |  |
| < 1 µM | 88% | OCCOn1nnc2ccc(C3CCCc4cncn43)cc21 (stereo not shown) [Compound 21] |  |
| 0.0898 µM | 93% | Cn1nnc2ccc(C3CCCc4cncn43)cc21 (stereo not shown) [Compound 23] |  |
| 0.0317 µM | 89% | CCCCn1nnc2ccc(C3CCCc4cncn43)cc21 (stereo not shown) [Compound 24] |  |
| 0.0556 µM | 91% | CC(C)n1nnc2ccc(C3CCCc4cncn43)cc21 (stereo not shown) [Compound 25] |  |
| 0.054 µM | 93% | CCn1nnc2ccc(C3CCCc4cncn43)cc21 (stereo not shown) [Compound 26, 1-ethyl-6-(5,6,7,8-tetrahydroimidazo[1,5-a]pyridin-5-yl)-1H-benzotriazole monohydrochloride] |  |
| 0.0254 µM | 86% | CCCCCCn1nnc2ccc(C3CCCc4cncn43)cc21 (stereo not shown) [Compound 27] |  |
| 0.0423 µM | 93% | c1cc2nnn(C3CCCC3)c2cc1C1CCCc2cncn21 (stereo not shown) [Compound 30] |  |
| 0.0435 µM | 96% | CCCn1nnc2ccc(C3CCCc4cncn43)cc21 (stereo not shown) [Compound 31] |  |
| 0.054 µM | 95% | CC(C)(C)n1nnc2ccc(C3CCCc4cncn43)cc21 (stereo not shown) [Compound 32] |  |
| 0.046 µM | 96% | CC(C)Cn1nnc2ccc(C3CCCc4cncn43)cc21 (stereo not shown) [Compound 33] |  |
| 0.041 µM | 98% | c1cc2nnn(C3CCCCC3)c2cc1C1CCCc2cncn21 (stereo not shown) [Compound 35] |  |

| SMILES | IC50 [1] | inhibition at 1 mg/kg [2, 3] | inhibition at 1 mg/kg ([2]; po) |
| --- | --- | --- | --- |
| c1cc2nnn(OCC3CC3)c2cc1C1CCCc2cncn21 (stereo not shown) [Compound 8, 1-(cyclopropylmethoxy)-6-(5,6,7,8-tetrahydroimidazo[1,5-a]pyridin-5-yl)-1H-benzotriazole mononitrate] | 0.0319 µM |  | 87% |
